# Patent US20210395696A1, “ISOLATED NASOPHARYNGEAL CARCINOMA CELLS AND DERIVATIVES PREPARED THEREOF” (INSTITUTE FOR MEDICAL RESEARCH, priority 2018, published 2021)
# Legend:
# [1] = system: gfp-luc2-labelled PDX cells (NPC), metastatic model; assay: Drug testing in metastatic tumour model of gfp-luc2-labelled PDX (intra-cardiac injection); format: in vivo, NSG mice; conditions: metastatic model (left ventricle injection); 2 mg/kg i.p. weekly for 3 weeks; bioluminescence imaging
# Experimental: (§1) All experiments were performed in accordance with national regulations and were approved by the AC UC of Ministry of Health, Malaysia. NSG mice, 6-8 weeks old were anaesthetized using Ketamine-Xylazine (100 mg/ml and 10 mg/ml).
# (§2) To test the effect of drug on tumour growth inhibition, subcutaneous and/or metastatic model were used. For subcutaneous model, 2×10^5 cells of gfp-luc2 cells were resuspended in RPMI and mixed with matrigel at 1:1 ratio and injected into the right flank. For metastatic model, 2×10^5 cells of gfp-luc2 cells were resuspended in 100 μl of RPMI and injected into left ventricle. Weekly bioluminescence imaging (BLI) were carried out to monitor the progress of tumour growth using VIS Spectrum.
# (§3) When tumour volume reached to 50-150 mm^3 or once the signal intensity reached 1×10^4 (average radiance, p/sec/cm^2/sr) mice were randomised into control or treatment group. Treatment commenced 35 days post inoculation. Mice were treated with vehicle (0.9% NaCl) or cisplatin (2 mg/kg) via intraperitoneal (i.p.) injection, weekly for 3 weeks. Tumour volume was measured thrice weekly using callipers and BLI was carried out weekly. Mice were observed daily for general wellbeing and tumour burden.
# [2] = system: gfp-luc2-labelled PDX cells (NPC), subcutaneous model; assay: Drug testing in subcutaneous tumour model of gfp-luc2-labelled PDX; format: in vivo, NSG mice; conditions: 2 mg/kg i.p. weekly for 3 weeks, bioluminescence imaging
# Experimental: as §1, §2, §3
smiles,measurement,setting,value
N.N.[Cl][Pt][Cl] [cisplatin],tumour response as measured by the luminescence signals intensity,[1],tumour regression
same,tumour response as measured by the luminescence signals intensity,[2],tumour regression
